According to PMC6259748, “Selection of Peptides Targeting Helix 31 of Bacterial 16S Ribosomal RNA by Screening M13 Phage-Display Libraries” (Molecules, 2011):
“Also recorded” adds a separate entry of the source.

Columns and labels:
[1] = test system: wild-type modified h31; assay: surface plasmon resonance (SPR), modified h31; type: binding, E. coli; conditions: for ka (association rate constant) / kd (dissociation rate constant): 1:1 Langmuir, 150 mM NaCl, 50 μL/min, 25 °C, CM5 chip; for ka (association rate constant): 10 mM Tris·HCl, 10 mM MgCl2, 1 mM DTT, 0.005% P20, pH 7.5; for kd (dissociation rate constant): pH 7.5, 10 mM MgCl2
Method: Modified h31 was labeled with biotin in order to immobilize the RNA onto a surface and determine the kinetics of peptide binding by surface plasmon resonance (SPR). […] In order to enhance the signal-to-noise ratio, a GFP-protein-fused peptide, TYLPWPA-GFP, was generated and used as the analyte.
Biotinylated, modified h31 RNA was immobilized onto a streptavidin-coated CM5 chip and differing concentrations of TYLPWPA-GFP (10–100 µM) were injected as the analyte. A range of salt concentrations, detergent levels, pH conditions, and flow rates were tested, since these factors affect the peptide-RNA complex formation (data not shown). The apparent dissociation constants were determined under the following optimized conditions: 10 mM Tris·HCl, 150 mM NaCl, 10 mM MgCl2, 1 mM dithiothreitol (DTT), 0.005% (v/v) P20 at pH 7.5 as the running buffer at a flow rate of 50 μL/min.
All immobilization and subsequent binding studies were performed using a BIAcore 2000 instrument set at a temperature of 25 °C. Standard dextran surface BIAcore sensorchips (Sensor chip CM5) were purchased from BIAcore (GE Healthcare, Piscataway, NJ). Standard desorb and sanitize routines were performed according to the BIAcore guidelines before docking a new CM5 sensor chip. All buffers were filtered through sterile 0.2 μm nylon membranes (Millipore™) under vacuum. Before derivatizing the flow cells with streptavidin, the CM5 sensor chip was pre-conditioned using three successive 10 μL injections of chip-preparation solution (10 mM NaOH, 500 mM NaCl) at 100 μL/min, followed by a normalization routine using BIAnormalizing solution (40% glycerol). Streptavidin derivatization was performed according to standard procedures.
Prior to immobilization, the solution of biotinylated RNA in HBS-EP buffer (10 mM HEPES, 3 mM EDTA, 150 mM NaCl, 0.005% P20 at pH 7.4) was renatured by heating to 90 °C for 2 min, cooling gradually to room temperature, and placing on ice. Flow cells were functionalized by injecting 30 μL of RNA at a time using the MANUAL INJECT command at a flow rate of 10 μL/min, until the desired immobilization level was reached. One of the flow cells was used to immobilize RNA, while the adjacent cell remained unmodified to serve as a blank-control for matrix effects. Levels of RNA captured were calculated by subtracting […] for each flow cell. After RNA immobilization, both flow cells were blocked with 100 μL of 1 mg/mL biotin at 5 μL/min.
For the SPR experiments, the peptides were cloned into plasmid pBacEmGH (Cunningham Lab, to be described elsewhere) under transcriptional regulation of a PBAD promoter. Upon induction with L-arabinose, the resulting construct produces a fusion protein in which the peptide is fused to the N-terminus of EmGFP containing a C-terminus 6 x His affinity tag (PEP-EmGFP-6 x His).
Peptide samples were prepared by serial dilutions from stock solutions. Dilutions were made in running buffer (10 mM Tris·HCl, 150 mM NaCl, 10 mM MgCl2, 1 mM DTT, 0.005% (v/v) P20 at pH 7.5). All procedures for binding were automated, as optimized methods using repetitive cycles of sample injection and regeneration. Typically, running buffer was injected for ~30 min prior to experiment to establish a stable baseline value. Peptide solutions (200 μL) were injected at a kinetic flow rate of 50 μL/min, using the KINJECT command. All peptide samples were injected from 7 mm plastic vials (BIAcore) that were capped with pierceable plastic-crimp-caps to minimize carry-over and sample evaporation. Samples were injected in order of increasing concentration. The surface was regenerated using 150 μL of 500 mM NaCl. The data were fit to a 1:1 binding Langmuir model using BIAevaluation 3.0 software. […]

[2] = test system: unmodified h31; assay: surface plasmon resonance (SPR), unmodified h31; type: binding, E. coli; conditions: analyte 1 μM; ~200 fmoles RNA immobilized; injection time 1 min
Method: All immobilization and subsequent binding studies were performed using a BIAcore 2000 instrument set at a temperature of 25 °C. Standard dextran surface BIAcore sensorchips (Sensor chip CM5) were purchased from BIAcore (GE Healthcare, Piscataway, NJ). Standard desorb and sanitize routines were performed according to the BIAcore guidelines before docking a new CM5 sensor chip. All buffers were filtered through sterile 0.2 μm nylon membranes (Millipore™) under vacuum. […]
Prior to immobilization, the solution of biotinylated RNA in HBS-EP buffer (10 mM HEPES, 3 mM EDTA, 150 mM NaCl, 0.005% P20 at pH 7.4) was renatured by heating to 90 °C for 2 min, cooling gradually to room temperature, and placing on ice. […] Levels of RNA captured were calculated by subtracting response units after injection from response units before injection for each flow cell. […]
Kinetic constants were determined by integration of the experimental data using the differential rate equation dRU/dt = ka·C·(RUmax-RU)-kd·RU to obtain ka and kd values simultaneously (RU = observed response, RUmax = maximum response upon saturation, C = analyte concentration, ka = association rate constant, kd = dissociation rate constant). […]

[3] = test system: His(6)-EmGFP-S11 protein; assay: bead control with S11-emGFP protein (no ribosomes); type: binding, E. coli; conditions: purified His(6)-EmGFP-S11 added to peptide on beads
Method: The fluorescence intensity of each set of beads containing the selected peptides was quantified.
(§1) Fluorescently labeled 30S subunits were isolated by sucrose gradient centrifugation in 5 mM Mg^2+ [82]. For control experiments, His(6)-EmGFP-S11 was purified using IMAC resin (Bio-Rad, Hercules, CA) and the fluorescence was assayed using beads carrying peptides with ribosomes, beads carrying peptides with His(6)-EmGFP-S11 (no ribosomes) and beads only with ribosomes (no peptides).
(§2) The fluorescent ribosomes were incubated in binding buffer B (20 mM HEPES, pH 7.3, 10 mM MgCl2, 100 mM KCl) at 37 °C for 30 min. Next, 25 pmoles of ribosome solution was added to each peptide, and the mixture was incubated overnight at 4 °C with agitation. Unbound ribosomes were removed by two 450 μL washes with binding buffer B and centrifugation at 6,000 rpm for 1–2 min. The beads were resuspended in 40 μL of binding buffer B for microscope screening and kept on ice until scanning. The beads (20 μL) were spread on microscope slides for scanning (Olympus 1X71 microscope, TH4 100 Olympus lamp, Olympus UCMAD 3 camera, 20× magnification). An average of two pictures were taken per slide, eliminating beads presenting uneven swelling and cracks.

[4] = test system: GFP-S11-labeled 30S subunits; assay: ribosome-binding assay on Tentagel beads; design: species or system E. coli
Method: The purpose of this experiment was to determine whether the selected peptides have affinity for bacterial ribosomes. The binding affinities of various peptides could also be compared by this method. Small ribosomal subunits, 30S, labeled with GFP on ribosomal protein S11 were added to peptides covalently attached to Tentagel beads (Figure 4A). […] The peptides were chemically synthesized on Tentagel beads with their N-termini exposed. Increasing concentrations of GFP-tagged 30S subunits were added to the Tentagel-bound peptides and unbound 30S subunits were removed by washing. Relative fluorescence intensity of the 30S subunits bound to the peptides on bead was determined by imaging on a fluorescence microscope, with the assumption that the level of fluorescence on the beads was proportional to the affinity of the ribosome for the peptide sequence.
Four peptides isolated from the phage-display experiment, […], DIRTQRE, TLWDLIP, and […], were synthesized on Tentagel (Rapp Polymer, Tübingen, Germany) beads using standard Fmoc synthesis. The beads were stored in DMF until use. The beads were then washed three times with 450 μl of water, and three times with 450 μL of the binding buffer B (binding buffer: 20 mM HEPES, pH 7.3, 10 mM MgCl2, 100 mM KCl), using 0.45 μm MWCO Nanosep (Pall Corporation, Ann Arbor, MI). The beads were then centrifuged at 6,000 rpm for 1–2 min.
as §1, §2

[5] = test system: translation of green fluorescent protein (GFP); assay: coupled in vitro transcription-translation inhibition assay (GFP); type: biochemical, E. coli
Method: A cell-free translation assay was used to test the potential inhibitory effects of the peptides on protein synthesis. Different concentrations of peptides were added to E. coli S30 extracts and the extent of inhibition was monitored by the measurement of green fluorescent protein (GFP) translation.
The inhibitory effects of selected peptides (DIRTQRE, CVRPFAL, FVRPFAL, TLWDLIP and TYLPWPA) on cellular processes were determined by in vitro coupled transcription-translation inhibition assay. The PURExpress™ in vitro protein synthesis kit #E6800S from New England Biolabs (Beverly, MA) was used for this purpose. A DNA template for GFP (pRSETEmGFP plasmid, Invitrogen) was employed at a concentration of 10 µg/mL in a 15 µL of reaction volume. Different concentrations of peptides were added, ranging from 300 µM to 2 mM. The DNA template was added only after mixing of the peptides or streptomycin so that they could bind to their target region first. For the control, streptomycin was added at a final concentration of 300 µM. The reaction was incubated in 384-well, Costar, clear-well, black plates and in situ incubated at 37 °C in a Gemini XPS microplate spectrofluorometer (Molecular Devices, Sunnyvale, CA) and the amount of GFP produced was monitored at different time intervals from 0 min to 2 h by fluorescence (excitation at 487 nm, emission at 509 nm).

[6] = biological target: wild-type modified h31; assay: surface plasmon resonance (SPR), modified h31; type: binding, E. coli; conditions: SPR kinetic analysis, 1:1 Langmuir; pH 7.5; 150 mM NaCl, 10 mM MgCl2; 50 μL/min; 25 °C; analyte 0–1 μM

Substance: CVRPFAL-GFP
- ka (association rate constant) [1]: (120 ± 1) × 10^2 M^-1s^-1
- kd (dissociation rate constant) [1]: (2.6 ± 0.02) × 10^-3 s^-1
- binding interaction with unmodified h31 [2]: did not reveal any binding interactions; also recorded: No binding interaction was detected

Substance: TLWDLIP [heptapeptide selected against modified h31, with and without counter selection]
- fluorescence on beads with S11-emGFP protein [3]: did not show any fluorescence; also recorded: fluorescence was not observed
- order of binding preference by the 30S subunits (from high to low) ([4]; Tentagel beads, fluorescence microscopy, pH 7.3): TYLPWPA > CVRPFAL ≈ TLWDLIP > DIRTQRE
- fluorescence on beads after 30S binding ([4]; peptide on Tentagel beads, 30S subunits overnight at 4 °C, 20 mM HEPES, pH 7.3, 10 mM MgCl2, 100 mM KCl, duplicate): Fluorescence is observed
- inhibition of in vitro protein synthesis ([5]; cell-free translation, summary statement): inhibit in vitro protein synthesis
- order of translation inhibition by peptides (from high to low) ([5]; peptides at 1 mM, 37 °C, GFP fluorescence): CVRPFAL ≈ FVRPFAL > TLWDLIP > TYLPWPA > DIRTQRE
- binding affinity to modified h31 ([1]; in words, comparable to known antibiotics targeting 16S rRNA): high nM

Substance: TLWDLIP-GFP
- KD (kd/ka) [6]: 330 ± 7 nM
- ka (association rate constant) [1]: (93 ± 2) × 10^2 M^-1s^-1
- kd (dissociation rate constant) [1]: (3.1 ± 0.3) × 10^-3 s^-1
